Entries after “also recorded” stand apart in the source; their conditions may differ. Where two headings read alike, the source gives them in different places. Where no end group is shown, it is not given here.
Columns and labels:
human RXFP3 [1] = molecular target: T1, human RXFP3 (Homo sapiens, UniProt Q9NSD7); test: RXFP3 competition binding assay with Eu-DTPA-R3/I5; details: for binding affinity for RXFP3 (in words): RXFP3-expressing cells, Eu-labelled H3/INSL5 chimeric polypeptide
T1 construct: expressed in transfected cells
T1 sequence (Q9NSD7 1-469): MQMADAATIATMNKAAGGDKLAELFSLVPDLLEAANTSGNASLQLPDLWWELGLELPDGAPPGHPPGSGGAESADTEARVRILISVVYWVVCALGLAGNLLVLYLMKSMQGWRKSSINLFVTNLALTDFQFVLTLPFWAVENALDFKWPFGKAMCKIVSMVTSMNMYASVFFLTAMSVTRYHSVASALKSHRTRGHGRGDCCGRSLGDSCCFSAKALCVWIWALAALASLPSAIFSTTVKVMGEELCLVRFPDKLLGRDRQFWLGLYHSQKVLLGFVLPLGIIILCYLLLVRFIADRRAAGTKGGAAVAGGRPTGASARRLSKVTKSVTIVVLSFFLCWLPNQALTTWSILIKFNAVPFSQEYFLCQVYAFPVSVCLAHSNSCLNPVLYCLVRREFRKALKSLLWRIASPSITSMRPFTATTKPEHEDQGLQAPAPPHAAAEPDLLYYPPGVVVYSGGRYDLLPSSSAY

human RXFP3 [2] = molecular target: T1, human RXFP3; test: cAMP activity assay (pCRE β-galactosidase reporter, forskolin-induced) in CHO cells transfected with RXFP3; assay type: cell-based; details: for agonist activity at RXFP3 (inhibition of cAMP activity): RXFP3-expressing cells, 5 μM forskolin; for antagonist activity at RXFP3 (rescue of cAMP levels): in the presence of 10 nM H3 relaxin
Protocol: For activity determination, a cAMP activity assay was used. CHO cells were cultured in a 1:1 mixture of Dulbecco's modified Eagle's medium and HAMNS-F12 medium supplemented with 10% fetal bovine serum, 1% L-glutamine and 1% penicillin/strepicillin and cultivated in a humidified chamber with 5% CO2 at 37.8° C. 20 000 cells per well were seeded into a pre-coated poly-L lysine 96-wells plate. Cells were incubated over night before being transfected with the mammalian expression vector pcDNA3.1(+)zeo (UMR cDAN Resource Center) carrying human RXFP3 together with a pCRE β-galactosidase reporter plasmid using TransIT-CHO, OptiMEM and CHO-MOJO reagents. Cells were then incubated over night in a humidified chamber with 5% CO2 at 37.8° C. before cAMP assays were performed. […] In brief, the cells were incubated with the peptide for 6 h in a humidified chamber before the media was aspirated off and the cells were frozen at −80° C. To develop the results, the cells were lysed by addition of 25 μl buffer A (5 ml 10 mM sodium phosphate buffer, pH 8.0, 1 ml 0.2 mM MgSO4 and 50 μl 0.01 mM MnCl2 in 44 ml H2O) to each well and incubated on a shaker for 10 min at room temperature before addition of 100 μl Buffer B (5 ml 100 mM sodium phosphate buffer, pH 8.0, 1 ml 2 mM MgSO4, 50 μl 0.1 mM MnCl2, 2.5 ml 0.5% Triton X-100 and 0.16 ml 40 mM β-mercaptoethanol in 41.3 ml H2O) followed by a 10 min incubation. The substrate, chlorophenol red-β-D-galactopyranoside (CPRG), was then added to each well and the reaction was left at room temperature until a absorbance of <1 AU at 570 nm was reached.

human RXFP1 = molecular target: T2, human RXFP1 (Homo sapiens, UniProt Q9HBX9); test: RXFP1 competition binding assay with Eu-DTPA-H2 relaxin; details: HEK-293T cells transfected with RXFP1, Eu-DTPA-H2 relaxin
T2 construct: expressed in transfected cells; host or cells: HEK-293T
T2 sequence (Q9HBX9 1-757): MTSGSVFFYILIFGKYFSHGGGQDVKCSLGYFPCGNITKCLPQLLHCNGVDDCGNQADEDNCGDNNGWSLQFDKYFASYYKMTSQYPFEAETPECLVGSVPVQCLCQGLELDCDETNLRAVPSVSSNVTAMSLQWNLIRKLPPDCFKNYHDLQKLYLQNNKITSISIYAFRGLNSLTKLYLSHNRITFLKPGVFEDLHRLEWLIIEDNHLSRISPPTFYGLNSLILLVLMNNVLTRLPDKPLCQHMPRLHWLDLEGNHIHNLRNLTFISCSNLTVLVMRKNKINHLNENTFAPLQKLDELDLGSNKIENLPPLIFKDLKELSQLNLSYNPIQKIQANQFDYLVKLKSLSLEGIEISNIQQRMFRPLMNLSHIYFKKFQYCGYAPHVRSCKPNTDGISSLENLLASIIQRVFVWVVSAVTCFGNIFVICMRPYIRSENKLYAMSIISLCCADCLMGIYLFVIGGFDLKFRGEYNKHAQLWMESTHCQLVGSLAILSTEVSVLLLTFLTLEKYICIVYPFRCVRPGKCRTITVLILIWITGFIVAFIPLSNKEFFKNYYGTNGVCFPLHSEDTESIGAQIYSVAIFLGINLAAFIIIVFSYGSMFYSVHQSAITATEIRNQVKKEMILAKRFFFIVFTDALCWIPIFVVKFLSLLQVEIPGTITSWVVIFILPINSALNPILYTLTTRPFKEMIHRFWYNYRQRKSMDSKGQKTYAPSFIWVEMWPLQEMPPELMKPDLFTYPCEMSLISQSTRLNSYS
Protocol: Binding assays were carried out as follows. HEK-293T cells stably transfected with human RXFP3 were plated out onto pre-coated poly-L-lysine 96-well viewplates with a density of 50 000 cells per well. Media was aspirated off and the cells were washed with PBS before different concentrations of peptide diluted in binding buffer (100 mM HEPES, pH 7.6, 5 mM KCl, 1.3 mM MgSO4, 1.5 mM NaOAc, 1 mM EDTA and 10 mM glucose) and 300 μM of Eu-DTPA-R3/15 was added to each well. The cells were incubated at room temperature for 60 min before the peptide solution was aspirated off and the cells washed with PBS. DELFIA enhancement solution was then added and the cells incubated for a further 30-60 min at room temperature, after which the fluorescence was measured using a time resolved fluorometer with excitation at 340 nm an emission at 614 nm.
Similarly, the B1-22R single chain polypeptide was tested for its ability to activate RXFP1 or antagonise the action of H2 relaxin at this receptor. To do so, binding assays were carried out essentially as described above in Example 2 except using HEK-293T cells transfected with RXFP1 and 300 μM of Eu-DTPA-H2 relaxin.

rats = assay type: in vivo, rat; details: 10 μg, 0 to 45 minutes post administration, vs vehicle
From the text: The inventors also carried out experiments to determine if the effects may be due to disruption in locomotor skills.

RXFP4 = molecular target: T3, RXFP4 (Homo sapiens, UniProt Q8TDU9); test: cAMP activity assay in RXFP4-expressing cells; assay type: cell-based
T3 construct: expressed in transfected cells; host or cells: RXFP4-expressing cells
T3 sequence (Q8TDU9 whole entry, species assumed): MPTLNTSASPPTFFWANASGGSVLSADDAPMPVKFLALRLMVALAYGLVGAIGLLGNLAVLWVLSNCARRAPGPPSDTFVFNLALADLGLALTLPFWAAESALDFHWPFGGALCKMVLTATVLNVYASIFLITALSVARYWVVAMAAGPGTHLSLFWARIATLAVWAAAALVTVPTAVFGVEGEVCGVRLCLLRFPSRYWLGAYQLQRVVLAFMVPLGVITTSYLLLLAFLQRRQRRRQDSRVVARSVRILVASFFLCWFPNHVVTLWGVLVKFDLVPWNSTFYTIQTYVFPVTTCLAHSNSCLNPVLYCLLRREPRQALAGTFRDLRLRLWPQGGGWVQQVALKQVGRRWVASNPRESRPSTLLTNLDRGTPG

[3] = system: alcohol-preferring (iP) rats; test: Operant alcohol self-administration in alcohol-preferring (iP) rats; assay type: in vivo, rat; details: 10% ethanol, FR3, 3 μg, 10 μg or 30 μg via lateral cerebral ventricle cannula, vs normal and vehicle responding
Protocol: Rats were trained to stably administer 10% ethanol during daily operant session (n=18 rats) and then implanted with guide cannulae aimed at the lateral cerebral ventricle. Following a 7 day recovery period, the rats were re-stabilised on alcohol self-administration under fixed-ratio 3 (FR3) conditions and the effect of B1-22R was examined.
Rats were administered 3 μg, 10 μg or 30 μg of the B1-22R antagonist. […] The effect observed was dose-dependent.

[4] = HEK-293T cells stably transfected with human RXFP3, Eu-DTPA-R3/I5 tracer, n = 3, read-out: pIC50 (n = 3), binding affinities of single chain relaxin polypeptides for RXFP3 (converted)
[5] = HEK-293T cells stably transfected with human RXFP3, Eu-DTPA-R3/I5 tracer, n = 3

Substance	IC50 (human RXFP3 [1]; [4])	agonist activity at RXFP3 (inhibition of cAMP activity) (human RXFP3 [2])	binding affinity for RXFP3 (in words) (human RXFP3 [1])	further results
H-APYGVRLSGREFIRAVIFTSR-NH2 [H3 B3-22R]	195 nM	failed to show any agonist activity	binding affinities for RXFP3 similar to that of B1-22R	–
RAAPYGVRLSGREFIRAVIFTS [H3 B1-22]	–	–	significantly less efficient in binding this receptor	pIC50 (n = 3), binding affinities of single chain relaxin polypeptides for RXFP3 (human RXFP3 [1]; [5]): No activity
H-RAAPYGVRLAGREFIRAVIFTAR-NH2 [H3 B1-22R C10/22A]	148 nM	failed to show any agonist activity	binding affinities for RXFP3 similar to that of B1-22R	antagonist activity at RXFP3 (rescue of cAMP levels) (human RXFP3 [2]): lowest antagonist activity
H-RAAPYGVRLSGREFIRAVIFTSGGSRW-OH [H3 B-chain C10/22S, reference compound]	–	–	significantly less efficient in binding this receptor	–
H-RAAPYGVRLSGREFIRAVIFTSR-NH2 [H3 B1-22R]	–	no such inhibition	–	IC50 (human RXFP3 [1]): 17.8 nM; affinity for the RXFP1 receptor (human RXFP1): very poor affinity; locomotor skills (floor plane moves or floor plane distance) (rats): No significant difference; agonist activity at RXFP4 (RXFP4; RXFP4-expressing cells, cAMP): no agonist activity; antagonist activity at RXFP4 (RXFP4; block of INSL5 or H3 relaxin stimulated RXFP4 activation): fails to show any observable antagonist activity; ethanol lever presses [3]: significant decrease in ethanol lever presses; also recorded: dose-dependent; antagonist activity at RXFP3 (rescue of cAMP levels) (human RXFP3 [2]): rescued cAMP levels towards 100%; antagonist activity at RXFP3 (rescue of cAMP levels) (human RXFP3 [2]; listed as H1-B22R): greatest antagonist activity
H-AAPYGVRLSGREFIRAVIFTSR-NH2 [H3 B2-22R]	87.1 nM	failed to show any agonist activity	binding affinities for RXFP3 similar to that of B1-22R	–
H-RAAPYGVRLSGREFIRAVIFTSR-OH [H3 B1-22R Acid]	347 nM	failed to show any agonist activity	binding affinities for RXFP3 similar to that of B1-22R	–

Further lines, with some results ahead:

IC50 (human RXFP3 [1]; [4])	agonist activity at RXFP3 (inhibition of cAMP activity) (human RXFP3 [2])	Substance	binding affinity for RXFP3 (in words) (human RXFP3 [1])	further results
468 nM	failed to show any agonist activity	H-GVRLSGREFIRAVIFTSR-NH2 [H3 B6-22R]	binding affinities for RXFP3 similar to that of B1-22R	–
427 nM	failed to show any agonist activity	H-YGVRLSGREFIRAVIFTSR-NH2 [H3 B5-22R]	binding affinities for RXFP3 similar to that of B1-22R	–
2510 nM	–	RAAPYGVRLSGREFIRAVIFTSGGSRW-OH [H3 B-chain C10/22S, reference compound]	–	–
–	failed to show any agonist activity	VRLSGREFIRAVIFTSR [H3 B7-22R]	failed to bind RXFP3 at any detectable level	pIC50 (n = 3), binding affinities of single chain relaxin polypeptides for RXFP3 (human RXFP3 [1]; [5]): No activity
219 nM	failed to show any agonist activity	H-PYGVRLSGREFIRAVIFTSR-NH2 [H3 B4-22R]	binding affinities for RXFP3 similar to that of B1-22R	–

Reference: patent US9359422B2, “Single chain relaxin polypeptides” (The University of Queensland, priority 2010, dated 2016)
